TGI and GI50 data for 28 molecules are collected here from PubChem BioAssay (NCI).

Several values for one entry are separate records, joined by “and”; a condition that tells them apart may be missing. Equal entries are not always repeated.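 Five concentrations, 48 hours, 96-well plates. GI50: concentration for 50% inhibition of growth. TGI marks complete inhibition of growth.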

Some test systems named below: NCI/ADR-RES ovarian; 786-0 renal; PC-3 prostate; NCI-H460 lung; MCF7 breast; DU-145 prostate; LOX IMVI melanoma; RXF 393 renal; CCRF-CEM leukemia.
Common to all, as to assay: NCI tumour cell line growth inhibition, 48 h

For `CCOc1cc2c(cc1O)/C(=N\O)C[C@@H]1[C@@H]2CC[C@]2(C)[C@@H](O)CC[C@@H]12`, the TGI in the assay on NCI/ADR-RES ovarian was over 100 µM; with 786-0 renal, over 100 µM; in the assay with PC-3 prostate it was over 100 µM; in the assay on NCI-H460 lung, 1.47 µM; in the assay with DU-145 prostate, over 100 µM; in the assay with LOX IMVI melanoma, over 63.8 µM. For the same molecule, in the assay with RXF 393 renal, the TGI is over 100 µM. The GI50 with 786-0 renal is 0.015 µM; with PC-3 prostate it was 0.767 µM and 0.491 µM; in the assay on MCF7 breast it was 0.0264 µM; with DU-145 prostate, 0.0232 µM; with LOX IMVI melanoma it was 0.00721 µM.

On to `N#C/C(=C\c1ccc(O)c(O)c1)C(=O)NC1CCC(CC2CCC(NC(=O)/C(C#N)=C/c3ccc(O)c(O)c3)CC2)CC1` (stereo not given), for which the TGI with 786-0 renal is 7.37 µM; with NCI-H460 lung, 1.13 µM; with CCRF-CEM leukemia, 4.36 µM; with LOX IMVI melanoma, 1.22 µM; in the assay on RXF 393 renal, 12.8 µM.

On to `NNC(=S)N/N=C(/C(=O)Nc1cc(Cl)ccc1Cl)C1C(=O)Nc2ccccc2S1=O` (stereo not given), for which the TGI in the assay on 786-0 renal, in the assay with NCI-H460 lung, in the assay with CCRF-CEM leukemia, in the assay on LOX IMVI melanoma and in the assay with RXF 393 renal was over 100 µM throughout.

On to `COc1ccc(N=Nc2c(-c3ccccc3)nn(C(=O)CC(=O)Nc3cccc(Cl)c3)c2-c2ccccc2)cc1`, for which the TGI in the assay on 786-0 renal, with NCI-H460 lung, in the assay with CCRF-CEM leukemia and in the assay with LOX IMVI melanoma was over 100 µM each time.

On to `O=C(c1cc2ccccc2o1)N(Cc1ccccc1)c1ccccc1`, for which the TGI with 786-0 renal is 46.7 µM; in the assay on NCI-H460 lung, 78.6 µM; with CCRF-CEM leukemia, 37.6 µM; in the assay on LOX IMVI melanoma it was 39 µM; in the assay on RXF 393 renal, 43 µM.

`COC(=O)C1=C(C(=O)OC)C23CC1C1C(C(=O)OC)=C(C(=O)OC)C12C1C=CC3C2C(=O)OC(=O)C21` (stereo not given): the TGI in the assay on 786-0 renal, with NCI-H460 lung, in the assay on CCRF-CEM leukemia and with RXF 393 renal was over 100 µM throughout.

In the case of `CCCc1c[nH]c(-c2ccc(-c3cc(CCC)c(C=O)[nH]3)s2)c1`, the TGI in the assay with 786-0 renal is 27.7 µM; in the assay with NCI-H460 lung, 16.9 µM; with CCRF-CEM leukemia it was 91.4 µM; in the assay with LOX IMVI melanoma it was 27.7 µM; in the assay on RXF 393 renal, 36.1 µM.

As for `Cc1c(C(=O)C/C(=N/NC(=O)C[n+]2ccccc2)C(=O)Nc2ccccc2)[n+](=O)c2ccccc2n1O`, the TGI with 786-0 renal, in the assay on NCI-H460 lung, in the assay with CCRF-CEM leukemia, in the assay on LOX IMVI melanoma and in the assay on RXF 393 renal was over 100 µM each time.

Consider `CCOC(=O)C1=C(O)CSC1=Nc1ccccc1`, for which the TGI with 786-0 renal, in the assay with NCI-H460 lung and in the assay with LOX IMVI melanoma was over 100 µM in each case.

As to `CC(O)C(N=Cc1nc(-c2ccccc2)oc1O)C(=O)O` (stereo not given), the TGI with 786-0 renal, in the assay on NCI-H460 lung, with CCRF-CEM leukemia, with LOX IMVI melanoma and with RXF 393 renal was over 100 µM each time.

As for `O=c1cccccc1NCCCCCCNc1cccccc1=O`, the TGI in the assay on 786-0 renal, in the assay on NCI-H460 lung, in the assay with CCRF-CEM leukemia and in the assay with LOX IMVI melanoma was over 100 µM each time.

As for `CC(=O)O[C@]1(C)OC(=O)[C@@H](C)N1[N+](=O)[O-]`, the TGI with 786-0 renal, in the assay on NCI-H460 lung, in the assay on CCRF-CEM leukemia, in the assay on LOX IMVI melanoma and in the assay with RXF 393 renal was over 100 µM each time.

Consider `CC(C)(C)c1[nH]cnc1/C=c1\[nH]c(=O)/c(=C/c2ccccc2)[nH]c1=O`, for which the GI50 in the assay with NCI/ADR-RES ovarian is under 0.01 µM; in the assay on 786-0 renal, under 0.01 µM; with PC-3 prostate it was under 0.01 µM; in the assay on NCI-H460 lung, under 0.01 µM; in the assay on MCF7 breast, 0.0203 µM; with DU-145 prostate, 0.0159 µM. Besides, the results for the GI50 in the assay on CCRF-CEM leukemia, in the assay on LOX IMVI melanoma and with RXF 393 renal were under 0.01 µM, under 0.0121 µM and under 0.01 µM, respectively. Further, the TGI is over 100 µM in the assay on NCI/ADR-RES ovarian; 40.7 µM in the assay with 786-0 renal; 36.1 µM with PC-3 prostate; 17.7 µM in the assay with NCI-H460 lung; 17 µM in the assay with MCF7 breast; 31.3 µM in the assay on DU-145 prostate. Also, the TGI was over 68.4 µM in the assay on CCRF-CEM leukemia, 17.7 µM in the assay with LOX IMVI melanoma and 56.8 µM in the assay with RXF 393 renal.

Turning to `CC(C)(C)CC(C)(C)c1cc2c(O)c(c1)Cc1cc(C(C)(C)CC(C)(C)C)cc(c1O)Cc1cc(C(C)(C)CC(C)(C)C)cc(c1O)Cc1cc(C(C)(C)CC(C)(C)C)cc(c1O)Cc1cc(C(C)(C)CC(C)(C)C)cc(c1O)Cc1cc(C(C)(C)CC(C)(C)C)cc(c1O)C2`, the TGI in the assay with 786-0 renal, with NCI-H460 lung, with CCRF-CEM leukemia and in the assay with RXF 393 renal was over 100 µM each time.

Take `O=C(O)Cc1cccc2c1Oc1ccccc1S2`: the TGI in the assay with 786-0 renal, with NCI-H460 lung, in the assay on CCRF-CEM leukemia, with LOX IMVI melanoma and in the assay on RXF 393 renal was over 100 µM each time.

Consider `O=C(c1ccccc1)c1ccc(OCCOc2ccc(Nc3ccccc3)cc2)cc1`, for which the TGI in the assay on 786-0 renal is over 100 µM; with NCI-H460 lung it was over 100 µM; with CCRF-CEM leukemia, over 100 µM; in the assay with LOX IMVI melanoma, over 100 µM; in the assay with RXF 393 renal, 67.3 µM.

With `O=C1CCCC/C1=C1\C(=O)Nc2cc(F)ccc21`, the TGI with 786-0 renal, in the assay on NCI-H460 lung, in the assay on CCRF-CEM leukemia, in the assay on LOX IMVI melanoma and in the assay with RXF 393 renal was over 100 µM throughout.

Consider `CCSC1(SCC)CC(Cc2ccc(OC)cc2)N(C=NC(C)(C)C)C1` (stereo not given), for which the TGI with 786-0 renal was over 100 µM; in the assay on NCI-H460 lung, over 100 µM; with CCRF-CEM leukemia it was 52.4 µM; in the assay with LOX IMVI melanoma, 32.4 µM; with RXF 393 renal it was 40.9 µM.

`COc1c(NC(C)=O)cc(C)cc1NC(C)=O`: the TGI with 786-0 renal, in the assay with NCI-H460 lung, in the assay on CCRF-CEM leukemia, with LOX IMVI melanoma and with RXF 393 renal was over 100 µM each time.

For `CCCCCCCCOC(CO)CO`, the TGI in the assay on 786-0 renal, in the assay with NCI-H460 lung, in the assay with CCRF-CEM leukemia and with LOX IMVI melanoma was over 100 µM in each case.

As for `C1C[S][Ge]2([S]CCO1)[S]CCOCC[S]2`, in the assay with 786-0 renal, the GI50 is over 100 µM and the TGI was over 100 µM. Besides, in the assay on CCRF-CEM leukemia, the GI50 was over 100 µM and the TGI is over 100 µM.

Consider `Cc1c(-c2nnc(-c3ccc(Cl)cc3)o2)c(=O)n(-c2ccccc2)n1C`, for which the TGI in the assay on 786-0 renal, in the assay on NCI-H460 lung, in the assay with CCRF-CEM leukemia, in the assay on LOX IMVI melanoma and with RXF 393 renal was over 100 µM throughout.

Consider `COc1ccc2c3c(n(Cc4ccccc4)c(=O)c2c1)-c1cc(OC)c(OC)cc1C3C` (stereo not given), for which the TGI in the assay on 786-0 renal was 27.7 µM; in the assay on NCI-H460 lung, 21.7 µM; in the assay with CCRF-CEM leukemia, over 100 µM; in the assay with LOX IMVI melanoma it was over 100 µM; in the assay with RXF 393 renal, 48.8 µM.

For `O=C1N(c2ccccc2)C(=O)C2(SC=NN2Cc2ccccc2)N1c1ccccc1` (stereo not given), the TGI with 786-0 renal, in the assay on NCI-H460 lung, in the assay with CCRF-CEM leukemia, in the assay on LOX IMVI melanoma and in the assay on RXF 393 renal was over 100 µM in each case.

With `CC1(C)OC(C[C@]2(C#N)C[C@H](CCl)OC(C)(C)O2)C[C@@H](C[C@]2(C#N)C[C@H](CCl)OC(C)(C)O2)O1` (stereo not given in full), the TGI in the assay on 786-0 renal, in the assay with NCI-H460 lung, in the assay on CCRF-CEM leukemia and with LOX IMVI melanoma was over 100 µM throughout.

On to `COc1ccc(C2=NN(C(=O)c3cc(OC)c(OC)c(OC)c3)C(c3ccc(Cl)cc3)C2)cc1OC` (stereo not given), for which the GI50 in the assay with NCI/ADR-RES ovarian is 1.05 µM; in the assay with 786-0 renal it was 2.14 µM; with PC-3 prostate, 1.07 µM; in the assay with NCI-H460 lung it was 2.11 µM; in the assay on MCF7 breast, 0.398 µM; in the assay with DU-145 prostate it was 3.62 µM. Besides, the GI50 with CCRF-CEM leukemia was 2.34 µM; in the assay on LOX IMVI melanoma, 3.63 µM. The TGI with 786-0 renal was 27.5 µM; in the assay on PC-3 prostate, over 100 µM; in the assay on NCI-H460 lung, over 100 µM; in the assay with MCF7 breast, 14.7 µM; in the assay on DU-145 prostate it was over 58.9 µM; with CCRF-CEM leukemia, over 100 µM. The TGI with LOX IMVI melanoma was over 100 µM.

On to `CC1(C)CCc2cc3c(cc2O1)OCC1c2cc4c(cc2OC31)OCO4` (stereo not given), for which the TGI with 786-0 renal, in the assay with NCI-H460 lung, in the assay on CCRF-CEM leukemia, in the assay on LOX IMVI melanoma and in the assay on RXF 393 renal was over 100 µM in each case.

On to `COc1ccc(C(=O)C(C(=O)C(=O)Nc2ccc(Cl)c(Cl)c2)c2ccc(OC)cc2)cc1` (stereo not given), for which the TGI in the assay on 786-0 renal, with NCI-H460 lung, with LOX IMVI melanoma and in the assay on RXF 393 renal was over 100 µM throughout.
